Measurements taken from patent US20240050398A1, “METHOD AGAINST SNAKE ENVENOMATION” (UBI PHARMA INC., priority 2022, published 2024).
“Also recorded” adds a separate entry of the source.

Experiments:
Format in all cases: in vivo
[1] = test system: venom of Protobothrops mucrosquamatus; test: Efficacy against death caused by hemotoxic venom in ICR mice (flavonoid pre-mixed with venom, intradermal injection); conditions: venom 2.5 × LD50 per mouse, flavonoid 50 nmole per mouse
Description: The ICR mice were randomly divided into four groups, which included a pathological control group, two experimental groups (i.e., experimental groups 1 and 2), and one comparative group (n=7 mice in each group). Next, a respective one of the isorhamnetin, the quercetin, and the apigenin was mixed with a venom of Protobothrops mucrosquamatus in a volume ratio of 1:20, followed by incubation at 37° C. for 30 minutes, thereby forming a respective mixture solution. Afterward, the respective ICR mouse of each of the experimental groups 1 and 2 and the comparative group was intradermally injected with a suitable amount of the mixture solution as shown in Table 2 below. In addition, the respective ICR mouse in the pathological control group was intradermally injected with the venom of Protobothrops mucrosquamatus.
Subsequently, the survival number of the ICR mice in each group was observed and recorded at every hour until 10 hours after injection with the treating agent. The viability percentage (%) of the ICR mice in each group was calculated using the following Equation (1):
where A=viability percentage (%)
B=survival number of the ICR mice at every hour until 10 hours after injection with treating agent

[2] = test system: snake venom protein mixture (cardiotoxins and high molecular weight proteins from the venom of Naja atra); test: Cutaneous ulceration caused by snake venom proteins in ICR mice, intradermal injection; conditions: for area of cutaneous ulcers compared to pathological control group (in words): 24th hour after injection, 50 nmole per mouse pre-mixed with 0.1 mL snake venom protein mixture, intradermal; for median effective dose (ED50) for reducing an area of a cutaneous ulcer: administered via intradermal injection
Text: (§1) For further study of the efficacy of isorhamnetin and quercetin in alleviating cutaneous ulceration caused by snake venom proteins, the applicants conducted experiments using a snake venom protein mixture containing snake venom proteins having a molecular weight of not lower than 43 kD and a cardiotoxin that might cause tissue necrosis, so as to avoid sudden death of the ICR mice due to other toxins that might have interfered with the observation.
(§2) First, cardiotoxins were isolated from a suitable amount of the venom of Naja atra with reference to the methods descried in SC Sue et al., (2001), Biochemistry, 40, 12782-12794. […] Next, the cardiotoxins and the high molecular weight proteins were mixed, so as to obtain a snake venom protein mixture containing 0.5 mg/mL of the cardiotoxins and 0.025 mg/mL of the high molecular weight proteins.
First, the ICR mice were randomly divided into three groups, including a pathological control group and two experimental groups (i.e., experimental groups 1 and 2) (n=7 mice in each group). Next, a respective one of the quercetin and isorhamnetin was mixed with a suitable amount of the snake venom protein mixture in a volume ratio of 1:20, followed by incubation at 37° C. for […], thereby forming a respective mixture solution. Afterward, the respective ICR mouse of the experimental groups 1 and 2 was intradermally injected with a suitable amount of the mixture solution as shown in Table 4 below. In addition, the respective ICR mouse in the pathological control group was intradermally injected with the snake venom protein mixture.
At the 24th hour after injection with the treating agent, cutaneous ulcers occurring in the ICR mice of each group were photographed and the area thereof was analyzed using ImageJ software.

venom of Naja nivea = test: Efficacy of isorhamnetin in alleviating toxicity from neurotoxic venom in ICR mice (isorhamnetin injected 30 minutes after venom); conditions: 48th hour after injection; isorhamnetin 50 nmole per mouse 30 minutes after venom 2.5 × LD50
Description: To closely simulate conditions of an emergency treatment in which the subject was a victim of a venomous snake bite, in this application, the ICR mice were injected with the venom of Naja nivea and the isorhamnetin separately (with a time interval therebetween) instead of simultaneously (i.e., mixed in advance for injection).
First, the ICR mice were randomly divided into two groups, including a pathological control group (i.e., pathological control group 7) and an experimental group (i.e., experimental group 7) (n=7 mice in each group). Next, the respective ICR mouse in each group was intradermally injected with a suitable amount of the venom of Naja nivea (dose: 2.5×LD50 per mouse). After 30 minutes, the respective ICR mouse in the experimental group was intradermally injected again with a suitable amount of the isorhamnetin (dose: 50 nmole per mouse).
Subsequently, the survival number of the ICR mice in each group was observed and recorded at every hour until 48 hours after injection with the treating agent. The viability percentage (%) of the ICR mice in each group was calculated using the Equation (1).

[3] = test system: snake venom protein mixture (cardiotoxins and high molecular weight proteins from the venom of Naja atra); test: Cutaneous ulceration caused by snake venom proteins in ICR mice, topical administration; conditions: via topical administration
Text: as §1, §2
For further evaluating whether or not a similar result, as that of the experimental group 2 in Section A of this example, could be obtained when the isorhamnetin was applied via topical administration immediately after a subject suffered from a venomous snake bite, the following experiments were conducted.
First, 3.1 mg of the isorhamnetin was mixed with 1 mL of petroleum jelly in a melted state at 45° C., thereby obtaining an isorhamnetin ointment. […]

Compound	effect against death caused by a hemotoxic venom (in words) [1]	area of cutaneous ulcers compared to pathological control group (in words) [2]	median effective dose (ED50) for reducing an area of a cutaneous ulcer [2] [µM]	survival (in words) (venom of Naja nivea)	median effective dose (ED50) for reducing an area of a cutaneous ulcer [3] [µM]
O=c1c(O)c(-c2ccc(O)c(O)c2)oc2cc(O)cc(O)c12 [quercetin]	effective against death caused by a hemotoxic venom	significantly reduced	1200	–	–
O=c1cc(-c2ccc(O)cc2)oc2cc(O)cc(O)c12 [apigenin, reference compound]	may accelerate death	–	–	–	–
COc1cc(-c2oc3cc(O)cc(O)c3c(=O)c2O)ccc1O [isorhamnetin]	effective against death caused by a hemotoxic venom	significantly reduced; also recorded: highest degree of reduction	200	could even survive until the 48th hour	600
